Measured values reported in US12606561B2, “Substituted pyrazolo[1,5-a][1,3,5]triazines as CDK inhibitors” (QURIENT CO., LTD., priority 2018, dated 2026).

Assays:
OVCAR-3 = OVCAR-3 viability assay (CellTiter-Glo, 72 hours); assay type: cell-based; details: Homo sapiens; OVCAR-3 cells
Procedure, shortened: (§1)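 Cells in RPMI-1640 with 10% FBS were seeded (MV4-11 1×10^4, OVCAR-3 5×10^3, A2780 1×10^3 cells/well) and treated 24 h later with compound at 0.0015–10 uM, final DMSO under 0.1%. After 72 h at 37 °C, viability was read by CellTiter-Glo luminescence, in duplicate.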

CDK2/Cyclin A = molecular target: T1, CDK2/Cyclin A (Homo sapiens, UniProt P24941); experiment: Enzymatic assay for CDK2 (LANCE Ultra kinase assay, FRET based); assay type: biochemical; details: ATP at Km
T1 construct: purchased Invitrogen PV6290
Procedure, shortened: (§2)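 TR-FRET kinase assay at ATP Km with ULight-MBP peptide (68 nM) and Eu-anti-phospho-MBP antibody; CDK2/Cyclin A at […], CDK5/p25 at […]. 8-dose 4-fold compound dilutions; 60 min kinase reaction at 23° C., EDTA stop, 60 min detection, read at 615/665 nm.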

MV4-11 = experiment: Cellular MV4-11 viability assay (CellTiter-Glo, 72 hours); assay type: cell-based; details: Homo sapiens; MV4-11 cells
Procedure: Human […] cell line, MV4-11_(ATCC, Cat #CRL-9591), NSCLC (Non-small cell lung cancer) cell line H460 (ATCC, Cat #HTB-177), A2780 (ECACC, Cat #93112519) and OVCAR-3(ATCC, Cat #HTB-161) were obtained from ATCC. Cells were grown in RPMI-1640 media (Invitrogen, Cat #22400-089) supplemented with 10% FBS (Invitrogen, Cat #10099141) and 1% penicillin/streptomycin (Invitrogen, Cat #15070063) and cultured at 37° C., 5% CO2 in a humidified chamber. All cell lines were routinely tested for mycoplasma.
To effect of the CDK7 inhibitor to inhibit the growth of target cancer cells, viability assay were conducted a 72 hour time period. Briefly, the candidate cell line was plated in 96 well plate at the following density of cells respectively. 1×10^4 cells/well for MV4-11, 5×10^3 for H460 and OVCAR-3, and 1×10^3 for A2780. After 24 hours, the cells were treated with various concentrations of the compound (ranging from 0.0015 uM to 10 uM). DMSO solvent without compound served as a control and final DMSO concentration lest than 0.1%. After 72 hours of incubation at 37° C., 5% CO2 incubator, cells were analyzed for the viability using the CellTiter-Glo Luminescent Cell Viability Assay (Promega, Cat #G7570). All viability assays were performed in duplicate and Luminescence was read using an Envision (Perkin Elmer, USA). Data was analyzed using XLfit software.

CDK1/Cyclin B = molecular target: T2, CDK1/Cyclin B (Homo sapiens, UniProt P06493); experiment: Enzymatic assay for CDK1 (LANCE Ultra kinase assay, FRET based); assay type: biochemical; details: ATP at Km; read-out: CDK1 enzymatic activity IC50
T2 construct: purchased Invitrogen PR4768C
T2 sequence (P06493 whole entry): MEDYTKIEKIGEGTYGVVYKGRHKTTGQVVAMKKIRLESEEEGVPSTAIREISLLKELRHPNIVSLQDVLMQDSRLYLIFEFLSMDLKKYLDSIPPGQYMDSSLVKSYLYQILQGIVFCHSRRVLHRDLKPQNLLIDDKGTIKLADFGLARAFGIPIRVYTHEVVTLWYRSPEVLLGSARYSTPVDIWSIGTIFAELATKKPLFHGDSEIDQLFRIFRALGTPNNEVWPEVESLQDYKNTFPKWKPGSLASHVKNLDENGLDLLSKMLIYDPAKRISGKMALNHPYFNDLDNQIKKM
T2 sequence (P14635 whole entry partner): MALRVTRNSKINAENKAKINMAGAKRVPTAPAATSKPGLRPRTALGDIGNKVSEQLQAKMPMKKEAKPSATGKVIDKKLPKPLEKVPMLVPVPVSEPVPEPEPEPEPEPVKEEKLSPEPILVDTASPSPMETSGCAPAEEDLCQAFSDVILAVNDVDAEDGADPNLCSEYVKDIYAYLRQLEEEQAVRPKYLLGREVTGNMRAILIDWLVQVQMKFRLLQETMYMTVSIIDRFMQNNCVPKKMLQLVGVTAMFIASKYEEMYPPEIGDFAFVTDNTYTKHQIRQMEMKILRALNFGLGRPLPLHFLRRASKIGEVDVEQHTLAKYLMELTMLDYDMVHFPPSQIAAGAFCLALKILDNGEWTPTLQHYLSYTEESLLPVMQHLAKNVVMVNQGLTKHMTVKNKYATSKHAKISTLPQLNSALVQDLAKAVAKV
Procedure, shortened: (§3)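 TR-FRET (LANCE Ultra) kinase assays with a ULight-labelled peptide substrate and a Europium-labelled anti-phospho antibody. ATP was set at its Km for each kinase. Inhibition was measured on purified CDK/cyclin complexes: CDK7/Cyclin H/MNAT1 and CDK1/Cyclin B.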

A2780 = A2780 viability assay (CellTiter-Glo, 72 hours); assay type: cell-based; details: Homo sapiens; A2780 cells
Procedure, shortened: as §1

CDK5/p25 = molecular target: T3, CDK5/p25 (Homo sapiens, UniProt Q00535); experiment: Enzymatic assay for CDK5 (LANCE Ultra kinase assay, FRET based); assay type: biochemical; details: ATP at Km
T3 construct: purchased Invitrogen PR8543B
T3 sequence (Q00535 whole entry): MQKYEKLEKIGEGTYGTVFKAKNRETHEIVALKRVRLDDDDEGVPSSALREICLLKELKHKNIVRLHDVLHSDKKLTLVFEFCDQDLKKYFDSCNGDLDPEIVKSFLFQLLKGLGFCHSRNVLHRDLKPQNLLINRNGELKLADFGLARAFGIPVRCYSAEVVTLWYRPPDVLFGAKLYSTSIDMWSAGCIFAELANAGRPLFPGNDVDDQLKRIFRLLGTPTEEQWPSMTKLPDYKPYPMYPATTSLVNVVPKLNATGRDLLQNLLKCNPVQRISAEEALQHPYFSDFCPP
T3 sequence (Q15078 99-307 partner limits assumed): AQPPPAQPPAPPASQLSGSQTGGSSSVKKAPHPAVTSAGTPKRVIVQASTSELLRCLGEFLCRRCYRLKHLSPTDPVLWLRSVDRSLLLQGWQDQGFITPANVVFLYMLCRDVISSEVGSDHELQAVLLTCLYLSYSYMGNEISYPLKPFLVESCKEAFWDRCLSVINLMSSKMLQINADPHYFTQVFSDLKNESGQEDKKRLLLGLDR
Procedure, shortened: as §2

CDK7/Cyclin H/MNAT1 = molecular target: T4, CDK7/Cyclin H/MNAT1 (Homo sapiens, UniProt P50613); experiment: Enzymatic assay for CDK7 (LANCE Ultra kinase assay, FRET based); assay type: biochemical; details: for IC50: ATP at Km
T4 construct: purchased Invitrogen PR6749B
T4 sequence (P50613 whole entry): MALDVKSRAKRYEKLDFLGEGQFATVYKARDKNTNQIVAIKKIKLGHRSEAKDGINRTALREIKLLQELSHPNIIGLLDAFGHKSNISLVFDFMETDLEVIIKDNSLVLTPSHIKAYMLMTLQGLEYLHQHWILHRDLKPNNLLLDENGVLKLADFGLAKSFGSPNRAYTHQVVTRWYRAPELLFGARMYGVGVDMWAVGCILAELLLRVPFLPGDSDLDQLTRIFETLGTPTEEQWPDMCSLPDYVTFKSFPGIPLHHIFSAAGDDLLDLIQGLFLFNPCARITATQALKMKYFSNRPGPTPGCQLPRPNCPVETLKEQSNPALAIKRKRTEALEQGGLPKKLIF
T4 sequence (P51946 whole entry partner): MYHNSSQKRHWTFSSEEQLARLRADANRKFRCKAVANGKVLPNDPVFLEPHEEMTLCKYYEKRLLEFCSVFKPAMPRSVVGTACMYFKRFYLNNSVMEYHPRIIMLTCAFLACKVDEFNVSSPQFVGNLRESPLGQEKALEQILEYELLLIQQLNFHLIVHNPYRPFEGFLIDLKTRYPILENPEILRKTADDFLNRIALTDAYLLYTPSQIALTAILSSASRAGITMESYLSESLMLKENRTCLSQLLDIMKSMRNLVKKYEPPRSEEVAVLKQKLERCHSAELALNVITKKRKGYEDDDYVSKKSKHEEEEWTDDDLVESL
T4 sequence (P51948 whole entry partner): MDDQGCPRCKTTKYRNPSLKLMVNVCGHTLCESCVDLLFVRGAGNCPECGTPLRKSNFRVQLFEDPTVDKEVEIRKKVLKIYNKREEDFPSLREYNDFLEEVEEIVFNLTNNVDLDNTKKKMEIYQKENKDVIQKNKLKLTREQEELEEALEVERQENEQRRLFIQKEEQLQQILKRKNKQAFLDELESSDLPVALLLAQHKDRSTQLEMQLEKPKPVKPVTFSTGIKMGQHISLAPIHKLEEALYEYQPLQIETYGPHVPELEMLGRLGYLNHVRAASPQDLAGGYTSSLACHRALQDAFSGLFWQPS
Procedure, shortened: as §3

Structure (SMILES) | IC50 (OVCAR-3) | IC50 (CDK2/Cyclin A) | IC50 (MV4-11) | IC50 (CDK1/Cyclin B) | IC50 (A2780) | IC50 (CDK5/p25) | IC50 (CDK7/Cyclin H/MNAT1) | CDK1/CDK7: Selectivity of CDK7 inhibition over CDK1 inhibition (CDK7/Cyclin H/MNAT1) | CDK2/CDK7: Selectivity of CDK7 inhibition over CDK2 inhibition (CDK7/Cyclin H/MNAT1) | CDK5/CDK7: Selectivity of CDK7 inhibition over CDK5 inhibition (CDK7/Cyclin H/MNAT1)
CC(C)c1cnn2c(NCc3ccccc3-c3nccc4cc(NC(=O)/C=C/CN(C)C)ccc34)nc(NCC3CNCCO3)nc12 (racemic) [Compound 62] | < 1000 nM | > 1000 nM | < 1000 nM | > 1000 nM | < 1000 nM | > 1000 nM | < 100 nM | A (A indicates [fold] > 500) | A (A indicates [fold] > 500) | A (A indicates [fold] > 500)
CC(C)c1cnn2c(NCc3ccccc3-c3nccc4cc(NC(=O)/C=C/CN(C)C)ccc34)nc(-n3ccc(CO)n3)nc12 [Compound 41] | < 1000 nM | > 1000 nM | < 1000 nM | > 1000 nM | < 1000 nM | > 1000 nM | < 100 nM | B (B indicates 50 < [fold] ≤ 500) | B (B indicates 50 < [fold] ≤ 500) | B (B indicates 50 < [fold] ≤ 500)
CC(C)c1cnn2c(NCc3ccccc3-c3nccc4cc(NC(=O)/C=C/CN(C)C)ccc34)nc(N3CCOCC3)nc12 [Compound 42] | < 1000 nM | > 1000 nM | < 1000 nM | > 1000 nM | < 1000 nM | > 1000 nM | 100 to 1000 nM | B (B indicates 50 < [fold] ≤ 500) | B (B indicates 50 < [fold] ≤ 500) | B (B indicates 50 < [fold] ≤ 500)
CC(C)c1cnn2c(NCc3ccccc3-c3nccc4cc(NC(=O)C5=CCCC5)ccc34)nc(NC[C@H]3CCNC[C@@H]3O)nc12 [Compound 65] | < 1000 nM | > 1000 nM | < 1000 nM | > 1000 nM | < 1000 nM | > 1000 nM | < 100 nM | A (A indicates [fold] > 500) | A (A indicates [fold] > 500) | A (A indicates [fold] > 500)
CC(C)c1cnn2c(NCc3ccccc3-c3nccc4cc(NC(=O)/C=C/CN(C)C)ccc34)nc(N3CCC(O)CC3)nc12 [Compound 31] | < 1000 nM | > 1000 nM | < 1000 nM | > 1000 nM | < 1000 nM | > 1000 nM | < 100 nM | A (A indicates [fold] > 500) | A (A indicates [fold] > 500) | A (A indicates [fold] > 500)
C=C(F)C(=O)Nc1cccc2cc(-c3cccc(C)c3CNc3nc(NC[C@H]4CCNC[C@@H]4O)nc4c(C(C)C)cnn34)[nH]c12 [Compound 78] | 1000 to 10000 nM | > 1000 nM | < 1000 nM | > 1000 nM | < 1000 nM | > 1000 nM | < 100 nM | A (A indicates [fold] > 500) | A (A indicates [fold] > 500) | B (B indicates 50 < [fold] ≤ 500)
